This note sets out measurements from ChEMBL document CHEMBL1201862, “PubChem BioAssay data set” (2004).

Among the test systems are ACHN; BT-549; CAKI-1; DU-145; HT-29; IGROV-1; K562; KM12; MDA-MB-231; MDA-MB-435; MOLT-4; Malme-3M; NCI-H23; OVCAR-3; SF-268; SK-MEL-28; SK-OV-3; SN12C; UACC-62.
What all share (assay): NCI tumour cell line growth inhibition, 48 h

Each structure is given as a SMILES string.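 In this assay, cells in 96-well plates receive the compound at five concentrations for 48 hours. Endpoints are linearly interpolated between the surrounding concentrations. Here, GI50 denotes the concentration required for 50% inhibition of growth.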 Active and inactive are the calls of the source. Rule as the data show it: active = GI50 up to about 1.1 µM and inactive = higher. A value given as a limit tells only on which side of the number the result lay.

In the case of `COC(=O)c1ccc(COC(=O)N2C=CCC2C(=O)O)cc1` (stereo not drawn), the GI50 with ACHN, in the experiment with BT-549, with CAKI-1, with DU-145, with HT-29 and in the experiment on IGROV-1 was > 100 µM (inactive) in each case. Also, the GI50 with K562, with KM12, in the experiment with MDA-MB-231, in the experiment with MDA-MB-435, in the experiment with MOLT-4 and in the experiment with Malme-3M was > 100 µM (inactive) throughout. The GI50 in the experiment with NCI-H23, in the experiment with OVCAR-3, in the experiment with SF-268, in the experiment with SK-MEL-28, in the experiment on SK-OV-3 and with SN12C was > 100 µM (inactive) each time. In addition, in the experiment with UACC-62, the GI50 is > 100 µM (inactive).

Take `COC(=O)[C@]1(C)CC[C@]2(C)CC[C@]3(C)C4[C@H]5Oc6c(cc7c(c6C)CCC6[C@@]7(C)CC[C@@]7(C)C8[C@](C)(CCC[C@@]8(C)C(=O)OC)CC[C@]67C)O[C@H]5c5c(cc6c(c5C)O[C@@]5(C)C7=CC=C8[C@@](C)(CC[C@@]9(C)[C@@H]%10C[C@](C)(C(=O)OC)CC[C@]%10(C)CC[C@]89C)C7=CC(=O)[C@@]5(O)O6)[C@]4(C)CC[C@@]3(C)C2C1` (stereo partly drawn): the GI50 in the experiment with ACHN is 3.94 µM (inactive); in the experiment with BT-549 it was 7.03 µM (inactive); in the experiment on CAKI-1 it was 6.22 µM (inactive); in the experiment with DU-145, 3.6 µM (inactive); in the experiment with HT-29 it was 3.66 µM (inactive); in the experiment on IGROV-1 it was 2.62 µM (inactive). The GI50 with K562 is 3.46 µM (inactive); in the experiment on KM12 it was > 12.5 µM (inactive); with MDA-MB-231, 3.11 µM (inactive); in the experiment with MDA-MB-435, 3.56 µM (inactive); in the experiment on MOLT-4, 1.39 µM (inactive); with Malme-3M, 4.86 µM (inactive). Further, the GI50 in the experiment with NCI-H23 is 8.97 µM (inactive); with OVCAR-3, 2.64 µM (inactive); with SF-268 it was 4.5 µM (inactive); in the experiment with SK-MEL-28 it was 7.53 µM (inactive); in the experiment on SK-OV-3, > 12.5 µM (inactive); in the experiment on SN12C it was 2.35 µM (inactive). Moreover, the GI50 in the experiment on UACC-62 is 2.32 µM (inactive).

Turning to `COc1ccc(C2SCC(=O)N2c2ccc(-c3ccc(-n4c(-c5ccccc5)nc5ccccc5c4=O)cc3)cc2)cc1` (stereo not drawn), the GI50 was 70 µM (inactive) in the experiment on ACHN; 22.8 µM (inactive) in the experiment on BT-549; 95.3 µM (inactive) with CAKI-1; 42 µM (inactive) in the experiment on DU-145; 12.7 µM (inactive) with HT-29; 62.2 µM (inactive) in the experiment on IGROV-1. Besides, the GI50 in the experiment on K562 is 30.4 µM (inactive); in the experiment on KM12, 21.1 µM (inactive); with MDA-MB-231, 54.6 µM (inactive); in the experiment on MDA-MB-435 it was 49.7 µM (inactive); with MOLT-4, 31.8 µM (inactive); in the experiment on Malme-3M, 48.2 µM (inactive). Also, the GI50 with NCI-H23 was 68.9 µM (inactive); with OVCAR-3 it was 17.5 µM (inactive); in the experiment on SF-268, > 100 µM (inactive); in the experiment with SK-MEL-28, > 100 µM (inactive); with SK-OV-3, > 100 µM (inactive); in the experiment on SN12C, > 100 µM (inactive). In addition, in the experiment on UACC-62, the GI50 is 33 µM (inactive).

`CC(=O)c1cc2c(s1)C(=O)c1ccsc1C2=O`: the GI50 is 0.215 µM (active) in the experiment with ACHN; 0.182 µM (active) in the experiment with BT-549; 2.12 µM (inactive) with CAKI-1; 0.309 µM (active) with DU-145; 1.85 µM (inactive) with HT-29; 1.75 µM (inactive) in the experiment on IGROV-1. Further, the GI50 with K562 was 0.407 µM (active); with KM12, 1.61 µM (inactive); with MDA-MB-231, 0.327 µM (active); in the experiment with MDA-MB-435 it was 0.0713 µM (active); in the experiment on MOLT-4 it was 0.438 µM (active); in the experiment with Malme-3M, 0.146 µM (active). Besides, the GI50 in the experiment on NCI-H23 is 0.167 µM (active); with OVCAR-3 it was 0.22 µM (active); in the experiment on SF-268, 0.301 µM (active); in the experiment with SK-MEL-28, 0.185 µM (active); with SK-OV-3, 1.87 µM (inactive); in the experiment on SN12C, 0.182 µM (active). The GI50 with UACC-62 is 0.255 µM (active).

Regarding `Cc1cc2c(cc1Cl)SC(N/N=C(\N)c1ccc(Cl)cc1)=NS2(=O)=O`, the GI50 in the experiment on ACHN was 84.3 µM (inactive); in the experiment on BT-549 it was 46.7 µM (inactive); with CAKI-1 it was > 100 µM (inactive); in the experiment on DU-145, > 100 µM (inactive); with HT-29, 52.8 µM (inactive); with IGROV-1, 31 µM (inactive). Further, the GI50 in the experiment on K562 is 44 µM (inactive); in the experiment on KM12 it was 35.2 µM (inactive); in the experiment with MDA-MB-231, 76.6 µM (inactive); with MDA-MB-435, 61.8 µM (inactive); in the experiment with MOLT-4, 45.7 µM (inactive); with Malme-3M, 38.1 µM (inactive). Also, the GI50 in the experiment on NCI-H23 is 30.7 µM (inactive); with OVCAR-3, 34.7 µM (inactive); with SF-268, 45.6 µM (inactive); with SK-MEL-28 it was 54.7 µM (inactive); in the experiment with SK-OV-3, > 100 µM (inactive); in the experiment with SN12C, 78.3 µM (inactive). Moreover, the GI50 with UACC-62 is 59.7 µM (inactive).

For the compound `CCOC(=O)/C(C#N)=C1\c2c([nH]c(=S)[nH]c2=O)Oc2ccc3ccccc3c21`, the GI50 in the experiment on ACHN was 28.8 µM (inactive); with BT-549, > 100 µM (inactive); with CAKI-1, 75 µM (inactive); with DU-145, 78.9 µM (inactive); with HT-29, 12.4 µM (inactive); in the experiment with IGROV-1 it was > 100 µM (inactive). Besides, the GI50 is > 100 µM (inactive) in the experiment with K562; > 100 µM (inactive) in the experiment with KM12; 24.8 µM (inactive) in the experiment with MDA-MB-231; 43.2 µM (inactive) in the experiment with MDA-MB-435; 11.2 µM (inactive) with MOLT-4; 68.7 µM (inactive) with Malme-3M. Also, the GI50 in the experiment on NCI-H23 was 88.1 µM (inactive); in the experiment with OVCAR-3, 23.7 µM (inactive); in the experiment with SF-268, 24.3 µM (inactive); in the experiment with SK-MEL-28, 1.46 µM (inactive); with SK-OV-3, 44.9 µM (inactive); in the experiment with SN12C it was 41.1 µM (inactive). Besides, the GI50 with UACC-62 was 24.4 µM (inactive).

In the case of `COc1ccc(C(C#N)NC23CC4CC(CC(C4)C2)C3)cc1` (stereo not drawn), the GI50 in the experiment with ACHN, in the experiment with BT-549, in the experiment on CAKI-1, in the experiment with DU-145, in the experiment with HT-29 and with IGROV-1 was > 100 µM (inactive) each time. The GI50 in the experiment on K562, in the experiment on KM12, in the experiment with MDA-MB-231, in the experiment on MDA-MB-435, with MOLT-4 and with Malme-3M was > 100 µM (inactive) each time. Also, the GI50 in the experiment with NCI-H23, in the experiment with OVCAR-3, in the experiment on SF-268, with SK-MEL-28, with SK-OV-3 and in the experiment with SN12C was > 100 µM (inactive) in each case. Besides, the GI50 in the experiment on UACC-62 is > 100 µM (inactive).
